Patent publication US12083105B2, “Compositions and methods for treating adult-onset neuronal ceroid lipofuscinosis (Kufs disease)” (CORNELL UNIVERSITY, priority 2020, dated 2024)

Legend:
[1] = test system: Fe—S clusters bound to immunoprecipitated CSPα; assay: UV-Vis absorbance spectra of CSPα immunoprecipitated from ANCL patient fibroblasts; assay type: cell-based, human; conditions: 200 μM, 72 h, compared to control (0.1% DMSO), FIG. 7A
Procedure: ANCL patient-derived fibroblasts were treated with 200 μM of L1 or Dfx, or vehicle (0.1% DMSO=Control) for 72 h, before measuring the UV-Vis absorbance spectra of immunoprecipitated CSPα eluted by trypsinization (solid lines). Spectra were re-read after 10 min of 0.1 N HCl treatment (dashed lines). The experiments shown in FIGS. 7B-7I, were conducted using ANCL fibroblasts converted to iNs using BAM+ND1 technique. […] Quantitative immunoblotting was used to measure levels of oligomerized and fully palmitoylated CSPα as well as total SNAP-25. Oligo=oligomers; Palm=palmitoylated. […] The interaction of CSPα with SNAP-25 in ANCL iNs was measured by immunoprecipitating SNAP-25 followed by quantitative immunoblotting of co-immunoprecipitated CSPα (normalized to SNAP-25 IP). Note that mainly CSPα monomers and not oligomers were detected bound to SNAP-25. Control=control sham IP without IgG. […] Turnover of SNAP-25 was determined by cycloheximide chase, while maintaining the iron-chelators or vehicle in the medium. […] In the experiments shown in FIGS. 7E-7G, ANCL iNs treated with L1, Dfx, or vehicle for 56 d and analyzed. […] The levels of lipofuscin were determined by ELISA. In the experiments shown in FIGS. 7H-7I 56 day old untreated ANCL iNs were treated with L1, Dfx, or vehicle, and analyzed. […]

CSPα = CSPα oligomerization and palmitoylation in ANCL patient-derived induced neurons (quantitative immunoblotting); assay type: cell-based, human; conditions: ANCL iNs; 72 h; compared to vehicle alone; FIG. 7B
Procedure: ANCL patient-derived fibroblasts were treated with 200 μM of L1 or Dfx, or vehicle (0.1% DMSO=Control) for 72 h, before measuring the UV-Vis absorbance spectra of immunoprecipitated CSPα eluted by trypsinization (solid lines). Spectra were re-read after 10 min of 0.1 N HCl treatment (dashed lines). The experiments shown in FIGS. 7B-7I, were conducted using ANCL fibroblasts converted to iNs using BAM+ND1 technique. […] Quantitative immunoblotting was used to measure levels of oligomerized and fully palmitoylated CSPα as well as total SNAP-25. Oligo=oligomers; Palm=palmitoylated. […] The interaction of CSPα with SNAP-25 in ANCL iNs was measured by immunoprecipitating SNAP-25 followed by quantitative immunoblotting of co-immunoprecipitated CSPα (normalized to SNAP-25 IP). Note that mainly CSPα monomers and not oligomers were detected bound to SNAP-25. Control=control sham IP without IgG. […] Turnover of SNAP-25 was determined by cycloheximide chase, while maintaining the iron-chelators or vehicle in the medium. […] In the experiments shown in FIGS. 7E-7G, ANCL iNs treated with L1, Dfx, or vehicle for 56 d and analyzed. […] The levels of lipofuscin were determined by ELISA. In the experiments shown in FIGS. 7H-7I 56 day old untreated ANCL iNs were treated with L1, Dfx, or vehicle, and analyzed. […] Data are from FIG. 7A representative of n=4, FIG. 7B n=4, FIG. 7C n=4, FIG. 7D n=7, FIG. 7F n=4, FIG. 7G n=4, FIG. 7H n=6, FIG. 7I n=3. In FIGS. 7B-7C and FIGS. 7F-7G *P<0.05; **P<0.01; ****P<0.0001 by two-tailed Student's t-test. #P<0.05 by Mann-Whitney-Wilcoxon U test. In FIG. 7D-7C and FIGS. 7H-7I **P<0.01; ***P<0.001; ****P<0.0001 by two-way ANOVA; ##P<0.01; ###P<0.001; ####P<0.0001 by Tukey's multiple comparisons test.
For pharmacological iron-chelation, deferiprone (L1; 200 μM; Biotang), deferoxamine mesylate (Dfx; 200 μM; Calbiochem), or 0.1% DMSO as vehicle control were added to the respective culture media of primary cortical neurons, fibroblasts, or iNs. When these media were changed, the fresh media contained identical concentration of the respective iron-chelator or vehicle.
Fibroblasts from an affected person carrying the L116Δ mutation were obtained, and an age-and-sex matched unaffected fibroblast line was frozen, thawed and cultured in parallel to maintain similar passage numbers. Fibroblasts were maintained in DMEM supplemented with 10% fetal bovine serum supplemented with L-glutamine, penicillin, and streptomycin. […]
For SDS-PAGE, 10-15% Laemmli gels (10.3% T and 3.3% C) were used to separate proteins on Bio-Rad apparati. […] Immunoblots were washed 5× with TBS-T and dried, then scanned on Odyssey CLx (LI-COR) and quantified using Image-Studio software (LI-COR). […]

Row | Structure (SMILES) | UV-Vis signature of Fe—S clusters bound to immunoprecipitated CSPα [1] | oligomerization of CSPα (CSPα) | palmitoylation of CSPα (CSPα)
1 | Cc1c(O)c(=O)ccn1C [L1, 3-hydroxy-1,2-dimethyl-4(1H)-pyridone] | reduced | reduced the oligomerization | improved palmitoylation
2 | CC(=O)N(O)CCCCCNC(=O)CCC(=O)N(O)CCCCCNC(=O)CCC(=O)N(O)CCCCCN [Dfx, N′-[5-(Acetyl-hydroxy-amino)pentyl]-N-[5-[3-(5-aminopentyl-hydroxy-carbamoyl)propanoylamino]pentyl]-N-hydroxy-butane diamide] | reduced | reduced the oligomerization | improved palmitoylation
